Experimental data published in patent US9517279B2, “2-alkoxy-11-hydroxyaporphine derivatives and uses thereof” (The McLean Hospital Corporation, priority 2010, dated 2016).
Where a name gives a salt, the structure may show the parent alone. Read-outs that look alike come from different tables or passages of the source.

What was measured:
D1 human clone (D1^low) = molecular target: T1, D1 human clone (D1^low) (Homo sapiens, UniProt P21728); experiment: Competitive binding, D1 human clone [3H]SCH23390
T1 construct: expressed in transfected cells
T1 sequence (P21728 whole entry): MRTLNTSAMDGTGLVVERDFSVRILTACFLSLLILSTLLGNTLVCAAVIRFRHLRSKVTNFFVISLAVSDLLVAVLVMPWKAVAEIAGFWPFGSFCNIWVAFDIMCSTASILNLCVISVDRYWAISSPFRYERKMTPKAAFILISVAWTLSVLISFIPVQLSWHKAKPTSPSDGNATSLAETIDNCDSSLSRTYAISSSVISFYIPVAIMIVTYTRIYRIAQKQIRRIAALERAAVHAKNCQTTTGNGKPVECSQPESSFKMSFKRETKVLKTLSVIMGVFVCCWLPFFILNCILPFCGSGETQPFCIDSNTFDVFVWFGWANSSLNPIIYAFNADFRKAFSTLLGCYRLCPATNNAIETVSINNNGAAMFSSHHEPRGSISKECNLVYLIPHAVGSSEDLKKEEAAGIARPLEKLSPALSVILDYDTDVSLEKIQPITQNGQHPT

D1^high = molecular target: T2, D1^high (Rattus norvegicus, UniProt P18901); experiment: Competitive radioreceptor binding, D1 high-affinity state, rat striatum [3H]SCH23390
T2 construct: membrane-containing homogenates of rat corpus striatum tissue; from tissue; host or cells: rat corpus striatum
T2 sequence (P18901 whole entry): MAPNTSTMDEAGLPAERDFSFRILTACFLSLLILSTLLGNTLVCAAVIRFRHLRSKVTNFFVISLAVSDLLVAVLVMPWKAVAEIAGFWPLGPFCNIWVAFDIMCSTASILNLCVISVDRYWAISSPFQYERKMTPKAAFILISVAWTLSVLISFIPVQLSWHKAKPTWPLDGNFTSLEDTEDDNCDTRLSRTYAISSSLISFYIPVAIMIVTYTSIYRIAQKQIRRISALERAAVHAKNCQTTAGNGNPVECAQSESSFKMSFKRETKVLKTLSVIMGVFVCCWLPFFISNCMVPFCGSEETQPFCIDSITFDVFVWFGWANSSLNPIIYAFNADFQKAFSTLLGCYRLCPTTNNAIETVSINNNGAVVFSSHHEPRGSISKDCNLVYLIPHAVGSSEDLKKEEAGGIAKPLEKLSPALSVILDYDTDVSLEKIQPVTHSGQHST

D3 rat clone = molecular target: T3, D3 rat clone (Rattus norvegicus, UniProt P19020); experiment: Competitive binding, D3 rat clone [3H]domperidone
T3 construct: expressed in transfected cells
T3 sequence (P19020 whole entry): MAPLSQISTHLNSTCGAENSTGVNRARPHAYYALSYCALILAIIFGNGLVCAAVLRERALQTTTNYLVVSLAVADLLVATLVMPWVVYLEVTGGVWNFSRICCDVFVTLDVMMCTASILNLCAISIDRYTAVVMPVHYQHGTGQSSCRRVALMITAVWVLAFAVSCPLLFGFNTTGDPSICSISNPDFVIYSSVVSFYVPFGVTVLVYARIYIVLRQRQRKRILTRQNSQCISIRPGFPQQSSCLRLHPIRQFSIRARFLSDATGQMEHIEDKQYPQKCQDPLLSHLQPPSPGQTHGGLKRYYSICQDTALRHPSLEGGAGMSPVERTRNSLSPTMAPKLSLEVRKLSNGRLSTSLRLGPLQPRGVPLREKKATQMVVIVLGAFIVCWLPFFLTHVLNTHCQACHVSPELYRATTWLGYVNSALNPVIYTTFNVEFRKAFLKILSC

D1^low = molecular target: T4, D1^low (Rattus norvegicus, UniProt P18901); experiment: Competitive radioreceptor binding, D1 low-affinity state, rat striatum [3H]SCH23390
T4 construct: membrane-containing homogenates of rat corpus striatum tissue; from tissue; host or cells: rat corpus striatum
T4 sequence (P18901 whole entry): as the sequence (P18901 whole entry) above

D2^low = molecular target: T5, D2^low (Rattus norvegicus, UniProt P61169); experiment: Competitive radioreceptor binding, D2 low-affinity state, rat striatum [3H]domperidone
T5 construct: membrane-containing homogenates of rat corpus striatum tissue; from tissue; host or cells: rat corpus striatum
T5 sequence (P61169 whole entry): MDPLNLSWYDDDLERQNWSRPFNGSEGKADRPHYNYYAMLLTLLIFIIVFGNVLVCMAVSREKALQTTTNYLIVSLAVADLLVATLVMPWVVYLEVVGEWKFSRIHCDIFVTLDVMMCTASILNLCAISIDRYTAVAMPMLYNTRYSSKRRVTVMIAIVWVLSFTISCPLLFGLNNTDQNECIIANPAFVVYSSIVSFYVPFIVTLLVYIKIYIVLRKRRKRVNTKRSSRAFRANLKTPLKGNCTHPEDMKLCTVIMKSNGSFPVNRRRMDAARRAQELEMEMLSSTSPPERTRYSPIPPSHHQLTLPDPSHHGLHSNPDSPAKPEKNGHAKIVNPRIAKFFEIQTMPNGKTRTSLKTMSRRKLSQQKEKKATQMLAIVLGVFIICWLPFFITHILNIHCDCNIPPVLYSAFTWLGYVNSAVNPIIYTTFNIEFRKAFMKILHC

D2^high = molecular target: T6, D2^high (Rattus norvegicus, UniProt P61169); experiment: Competitive radioreceptor binding, D2 high-affinity state, rat striatum [3H]domperidone; settings: for D2^high binding affinity (in words): comparison with analogue
T6 construct: membrane-containing homogenates of rat corpus striatum tissue; from tissue; host or cells: rat corpus striatum
T6 sequence (P61169 whole entry): as above

human D3 clone = molecular target: T7, human D3 clone (Homo sapiens, UniProt P35462); experiment: Competitive binding, human D3 clone [3H]domperidone; settings: for Ki: human D3 clone, [3H]domperidone
T7 construct: expressed in transfected cells
T7 sequence (P35462 whole entry): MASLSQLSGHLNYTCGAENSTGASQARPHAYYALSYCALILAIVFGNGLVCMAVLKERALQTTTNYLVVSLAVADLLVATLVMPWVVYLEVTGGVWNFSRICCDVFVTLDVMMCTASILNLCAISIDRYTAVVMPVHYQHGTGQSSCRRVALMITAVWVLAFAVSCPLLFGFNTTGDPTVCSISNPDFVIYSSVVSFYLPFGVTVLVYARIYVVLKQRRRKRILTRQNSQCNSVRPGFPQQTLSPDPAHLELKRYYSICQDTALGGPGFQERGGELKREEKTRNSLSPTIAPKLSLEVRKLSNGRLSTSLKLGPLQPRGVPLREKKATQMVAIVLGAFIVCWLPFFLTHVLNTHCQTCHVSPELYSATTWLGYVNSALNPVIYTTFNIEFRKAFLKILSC

D3^high = molecular target: T8, D3^high (Homo sapiens, UniProt P35462); experiment: D3 high-affinity state binding (footnote g); settings: footnote g of Table 1
T8 construct: expressed in transfected cells
T8 sequence (P35462 whole entry): as above

[1] = rat striatum, [3H]domperidone, read-out: Ki D2^high
[2] = rat striatum, [3H]SCH23390, read-out: Ki D1^low (class)

SMILES	Ki D1^high (D1^high)	melting point	Ki (D2^low) [nM]	Ki (D2^high; [1]) [nM]	Ki (D1^low; [2]) [nM]	other results
CCN1CCc2cc(OCCF)cc3c2[C@H]1Cc1cccc(O)c1-3 [11d, R(−)-2-(2-fluoroethoxy)-11-hydroxy-N-n-ethylnoraporphine]	No D1^high	–	–	–	–	Ki (D1 human clone (D1^low); D1 human clone, [3H]SCH23390, read-out: Ki D1^low): 810 ± 120 nM; Ki (D3 rat clone): 550 ± 89 nM
CCN1CCc2cc(OCCI)cc3c2[C@H]1Cc1ccc(O)c(O)c1-3 (as salt: HCl) [8e, R(−)-2-iodoethoxy-N-ethylnorapomorphine]	–	155 to 163 °C (dec.)	–	–	–	–
CCCN1CCc2cc(OC)cc3c2[C@H]1Cc1ccc(O)c(O)c1-3 [2b, 2-MeO-NPA, reference compound]	–	–	805 ± 140	5.1 ± 1.3	–	Ki (D1^low): > 2000 nM; Ki (D1^high): 8.1 ± 0.7 nM
CN1CCc2cc(OCCCF)cc3c2[C@H]1Cc1ccc(O)c(O)c1-3 (as salt: HCl) [8f, R(−)-2-(3-Fluoropropanoxy) 10,11-dihydroxyaporphine]	–	170 to 175 °C (dec.)	–	–	–	–
CCN1CCc2cc(OCCF)cc3c2[C@H]1Cc1ccc(O)c(O)c1-3 [8d, R(−)-2-fluoroethoxy-N-ethylnorapomorphine]	No D1^high	–	2400 ± 1500	2.5	> 2000	fold improvement in D2^high binding affinity (D2^high; compared with 8c): more than 2 fold
CCN1CCc2cc(OCCCF)cc3c2[C@H]1Cc1cccc(O)c1-3 (as salt: HCl) [11c]	–	156 to 158 °C (dec.)	–	–	–	–
CCCN1CCc2cc(F)cc3c2[C@H]1Cc1ccc(O)c(O)c1-3 [2c, 2-F-NPA, reference compound]	No D1^high	–	1800 ± 340	2.7 ± 1.3	> 2000	–
CN1CCc2cc(OCCF)cc3c2[C@H]1Cc1cccc(O)c1-3 [11g, R(−)-2-(2-fluoroethoxy)-11-hydroxyaporphine]	–	–	480 ± 130	1.2 ± 0.4	–	Ki (human D3 clone): 0.89 ± 0.13 µM
CCCN1CCc2cc(OCCCF)cc3c2[C@H]1Cc1ccc(O)c(O)c1-3 [8a, R(−)-2-(3-fluoropropanoxy)-NPA]	No D1^high	–	3000	28 ± 15	–	Ki (D1^low): > 2000 nM; Ki (D2^high): 27 nM; Ki (human D3 clone): 0.43 ± 0.064 µM
CCCN1CCc2cc(OCCF)cc3c2[C@H]1Cc1cccc(O)c1-3 [11b, R(−)-2-(2-fluoroethoxy)-11-hydroxy-N-n-propylnoraporphine]	No D1^high	–	56 ± 37	3.5 ± 2	–	Ki (D1^low): > 2000 nM; D2^high binding affinity (in words) (D2^high): about the same; Ki (D3 rat clone): 410 ± 62 nM
Oc1cccc2c1-c1cccc3c1[C@@H](C2)N(CCCF)CC3 [compound 6, R(−)-11-Hydroxy-N-(3-fluoropropyl)noraporphine]	No D1^high	–	860 ± 170	6.9 ± 2.1	> 2000	Ki (human D3 clone; bound given in μM): > 10 µM
CCN1CCc2cc(OCCI)cc3c2[C@H]1Cc1ccc(O)c(O)c1-3 [8e, R(−)-2-iodoethoxy-N-ethylnorapomorphine]	No D1^high	–	770 ± 230	–	> 2000	Ki (D2^high): 5 ± 2.3 nM; D2^high binding affinity (in words) (D2^high): slight drop; selectivity for D2^high over D1, D3, and D2^low (D2^high; in words): high selectivity; Ki (human D3 clone; bound given in μM): > 10 µM
CCCN1CCc2cc(OCCCF)cc3c2[C@H]1Cc1cccc(O)c1-3 [11a]	No D1^high	–	–	–	> 2000	Ki (D3 rat clone): 100 ± 14 nM
CCCN1CCc2cc(OCCF)cc3c2[C@H]1Cc1ccc(O)c(O)c1-3 [8b, R(−)-2-Fluoroethyoxy-NPA]	No D1^high	–	990 ± 35	3.7	> 2000	Ki (human D3 clone): 2.2 ± 0.33 µM
CN1CCc2cc(OCCF)cc3c2[C@H]1Cc1ccc(O)c(O)c1-3 (as salt: salt) [8g, R(−)-2-(2-Fluoroethoxy) 10,11-dihydroxyaporphine]	–	236 to 238 °C (dec.)	–	–	–	–
CCN1CCc2cc(OCCF)cc3c2[C@H]1Cc1ccc(O)c(O)c1-3 (as salt: HCl) [8d, R(−)-2-fluoroethoxy-N-ethylnorapomorphine]	–	163 to 165 °C	–	–	–	–
CCCN1CCc2cc(OCCF)cc3c2[C@H]1Cc1ccc(O)c(O)c1-3 (as salt: HCl) [8b, R(−)-2-Fluoroethyoxy-NPA]	–	203 to 205 °C (dec.)	–	–	–	–
CCN1CCc2cc(OCCCF)cc3c2[C@H]1Cc1cccc(O)c1-3 [11c]	No D1^high	–	400 ± 290	3.2 ± 2.2	–	Ki (D1 human clone (D1^low)): 1300 ± 200 nM; D2^high binding affinity (in words) (D2^high): overall improved binding affinity; Ki (D3 rat clone): 240 ± 33 nM
CCCN1CCc2cccc3c2[C@H]1Cc1cccc(O)c1-3 [3b, reference compound]	–	–	–	–	–	Ki (human D3 clone): 1.7 ± 0.25 µM
CN1CCc2cc(OCCF)cc3c2[C@H]1Cc1ccc(O)c(O)c1-3 [8g, R(−)-2-(2-Fluoroethoxy) 10,11-dihydroxyaporphine]	No D1^high	–	620 ± 260	–	> 2000	D3 affinity (in words) (human D3 clone): no detectable affinity
Oc1cccc2c1-c1cccc3c1[C@@H](C2)N(CCCF)CC3 (as salt: HCl) [compound 6, R(−)-11-Hydroxy-N-(3-fluoropropyl)noraporphine]	–	195 to 197 °C (dec.)	–	–	–	–
CN1CCc2cc(OCCCF)cc3c2[C@H]1Cc1ccc(O)c(O)c1-3 [8f, R(−)-2-(3-Fluoropropanoxy) 10,11-dihydroxyaporphine]	No D1^high	–	–	31	> 2000	D3^high affinity (D3^high): did not show any D3^high affinity
CCN1CCc2cc(OCCCF)cc3c2[C@H]1Cc1ccc(O)c(O)c1-3 [8c, R(−)-2-(3-Fluoropropanoxy) 10,11-dihydroxy-N-ethylnoraporphine]	No D1^high	–	1600 ± 780	6.1 ± 3	> 2000	fold increase in D2^high affinity (D2^high; in comparison to 8a): ~4 fold
CCN1CCc2cc(OCCCF)cc3c2[C@H]1Cc1ccc(O)c(O)c1-3 (as salt: HCl) [8c, R(−)-2-(3-Fluoropropanoxy) 10,11-dihydroxy-N-ethylnoraporphine]	–	174 to 176 °C (dec.)	–	–	–	–
